From patent US9686988B2, “Pesticidal compounds based on arylthiosulfonamide derivatives” (Syngenta Participations AG, priority 2012, dated 2017)

Assays:
Type in all cases: in vivo
[1] = tested on: Thrips tabaci; assay: Thrips tabaci (onion thrips), sunflower leaf disc spray test; conditions: foliar, 144 h, application rate of 200 ppm, mortality 6 days after infestation, mixed ages
Description: Thrips tabaci (Onion Thrips):
(§1) Sunflower leaf discs were placed on agar in 24-well microtiter plates and sprayed with aqueous test solutions prepared from 10′000 ppm DMSO stock solutions. After drying the leaf discs were infested with a thrips population of mixed ages. The samples were assessed for mortality 6 days after infestation.

[2] = tested on: Diabrotica balteata; assay: Diabrotica balteata (corn rootworm), L2 larvae on artificial diet; conditions: 120 h, application rate of 200 ppm, mortality and growth inhibition 5 days after infestation
Description: Diabrotica balteata (Corn Rootworm):
(§2) 24-well microtiter plates with artificial diet were treated with aqueous test solutions prepared from 10′000 ppm DMSO stock solutions by pipetting. After drying, the plates were infested with L2 larvae (6 to 10 per well). The samples were assessed for mortality and growth inhibition 5 days after infestation. Control of Diabrotica balteata by a test sample is noted when at least one of mortality and growth inhibition is better than the untreated sample.

[3] = tested on: Tetranychus urticae; assay: Tetranychus urticae (two-spotted spider mite), bean leaf disc spray test; conditions: foliar, 192 h, application rate of 200 ppm, mortality (mobile stages) 8 days after infestation, mixed ages
Description: Tetranychus urticae (Two-Spotted Spider Mite):
as §1, with “Bean” for “Sunflower”, “discs” for “discs were placed”, “were” for “and”, “mite” for “thrips”, “(mobile stages) 8” for “6”

[4] = tested on: Spodoptera littoralis; assay: Spodoptera littoralis (Egyptian cotton leaf worm), cotton leaf disc spray test; conditions: foliar, 72 h, application rate of 200 ppm, mortality, anti-feedant effect, growth inhibition 3 days after infestation, L1 larvae
Description: Spodoptera littoralis (Egyptian Cotton Leaf Worm)
Cotton leaf discs were placed on agar in 24-well microtiter plates and sprayed with aqueous test solutions prepared from 10′000 ppm DMSO stock solutions. After drying the leaf discs were infested with five L1 larvae. The samples were assessed for mortality, anti-feedant effect, and growth inhibition 3 days after infestation. Control of Spodoptera littoralis by a test sample is noted when at least one of mortality, anti-feedant effect, and growth inhibition is better than the untreated sample.

[5] = tested on: Plutella xylostella; assay: Plutella xylostella (diamond back moth), L2 larvae on artificial diet; conditions: 120 h, application rate of 200 ppm, mortality and growth inhibition 5 days after infestation
Description: Plutella xylostella (Diamond Back Moth):
as §2, with “larvae (10” for “larvae (6”, “to 15” for “to 10”, “of Plutella xyllostella” for “of Diabrotica balteata”

[6] = tested on: Heliothis virescens; assay: Heliothis virescens (tobacco budworm), eggs on artificial diet; conditions: 120 h, application rate of 200 ppm, egg mortality, larval mortality, growth inhibition 5 days after infestation
Description: Heliothis virescens (Tobacco Budworm):
Eggs (0-24 h old) were placed in 24-well microtiter plates on artificial diet and treated with aqueous test solutions prepared from 10′000 ppm DMSO stock solutions by pipetting. The samples were assessed for egg mortality, larval mortality and growth inhibition 5 days after infestation. Control of Heliothis virescens by a test sample is noted when at least one of egg mortality, larval mortality and growth inhibition is better than the untreated sample.

[7] = tested on: Myzus persicae; assay: Myzus persicae (green peach aphid), sunflower leaf disc spray test; conditions: foliar, 144 h, read-out: mortality of Myzus persicae
Description: Myzus persicae (Green Peach Aphid):
Sunflower leaf discs were placed on agar in a 24-well microtiter plate and sprayed with aqueous test solutions prepared from 10′000 ppm DMSO stock solutions. After drying, the leaf discs were infested with an aphid population of mixed ages. The samples were assessed for mortality 6 days after infestation.

[8] = tested on: Diabrotica balteata; assay: Diabrotica balteata (corn rootworm), sprayed maize sprouts; conditions: 96 h, application rate of 200 ppm, 4 days after infestation, L2 larvae
Description: Diabrotica balteata, (Corn Rootworm)
Maize sprouts, placed on an agar layer in 24-well microtiter plates were treated with aqueous test solutions prepared from 10′000 ppm DMSO stock solutions by spraying. After drying, the plates were infested with L2 larvae (6 to 10 per well). The samples were assessed for mortality 4 days after infestation.

NS(=O)(=O)CSc1ccc(C2=NOC(c3cc(Cl)cc(Cl)c3)(C(F)(F)F)C2)cc1Br (stereo not shown) [Compound A1, [2-bromo-4-[5-(3,5-dichlorophenyl)-5-(trifluoromethyl)-4H-isoxazol-3-yl]phenyl]sulfanylmethanesulfonamide]
≥ 80%: pest or weed control at 200 ppm [1] | pest or weed control at 200 ppm [2] | pest or weed control at 200 ppm [3] | pest or weed control at 200 ppm [4] | pest or weed control at 200 ppm [5] | pest or weed control at 200 ppm [6]

CCN(CC)S(=O)(=O)CSc1ccc(C2=NOC(c3cc(Cl)cc(Cl)c3)(C(F)(F)F)C2)cc1Br (stereo not shown) [Compound A2, 1-[2-bromo-4-[5-(3,5-dichlorophenyl)-5-(trifluoromethyl)-4H-isoxazol-3-yl]phenyl]sulfanyl-N,N-diethyl-methanesulfonamide]
≥ 80%: pest or weed control at 200 ppm [1] | pest or weed control at 200 ppm [2] | pest or weed control at 200 ppm [3] | pest or weed control at 200 ppm [4] | pest or weed control at 200 ppm [5] | pest or weed control at 200 ppm [6]

CCNS(=O)(=O)CSc1ccc(C2=NOC(c3cc(Cl)cc(Cl)c3)(C(F)(F)F)C2)cc1Br (stereo not shown) [Compound A3, 1-[2-bromo-4-[5-(3,5-dichlorophenyl)-5-(trifluoromethyl)-4H-isoxazol-3-yl]phenyl]sulfanyl-N-ethyl-methanesulfonamide]
≥ 80%: pest or weed control at 200 ppm [1] | pest or weed control at 200 ppm [2] | pest or weed control at 200 ppm [3] | pest or weed control at 200 ppm [4] | mortality at 200 ppm [7] | pest or weed control at 200 ppm [5] | pest or weed control at 200 ppm [6]

NS(=O)(=O)CS(=O)(=O)c1ccc(C2=NOC(c3cc(Cl)cc(Cl)c3)(C(F)(F)F)C2)cc1Br (stereo not shown) [Compound A4, [2-bromo-4-[5-(3,5-dichlorophenyl)-5-(trifluoromethyl)-4H-isoxazol-3-yl]phenyl]sulfonylmethanesulfonamide]
≥ 80%: pest or weed control at 200 ppm [2] | pest or weed control at 200 ppm [3] | pest or weed control at 200 ppm [4] | pest or weed control at 200 ppm [5] | pest or weed control at 200 ppm [6]

CCNS(=O)(=O)CSc1ccc(C2=NO[C@@](c3cc(Cl)cc(Cl)c3)(C(F)(F)F)C2)cc1Br [Compound B1, 1-[2-bromo-4-[(5S)-5-(3,5-dichlorophenyl)-5-(trifluoromethyl)-4H-isoxazol-3-yl]phenyl]sulfanyl-N-ethyl-methanesulfonamide]
≥ 80%: pest or weed control at 200 ppm [1] | pest or weed control at 200 ppm [2] | pest or weed control at 200 ppm [3] | pest or weed control at 200 ppm [4] | mortality at 200 ppm [7] | pest or weed control at 200 ppm [5] | pest or weed control at 200 ppm [6]

O=S(=O)(CSc1ccc(C2=NO[C@@](c3cc(Cl)cc(Cl)c3)(C(F)(F)F)C2)cc1Br)NCC(F)(F)F [Compound B2, 1-[2-bromo-4-[(5S)-5-(3,5-dichlorophenyl)-5-(trifluoromethyl)-4H-isoxazol-3-yl]phenyl]sulfanyl-N-(2,2,2-trifluoroethyl)-methanesulfonamide]
≥ 80%: pest or weed control at 200 ppm [1] | pest or weed control at 200 ppm [2] | pest or weed control at 200 ppm [3] | pest or weed control at 200 ppm [4] | pest or weed control at 200 ppm [5] | pest or weed control at 200 ppm [6]

O=S(=O)(CSc1ccc(C2=NO[C@@](c3cc(Cl)cc(Cl)c3)(C(F)(F)F)C2)cc1Br)NC1CC1 [Compound B3, 1-[2-bromo-4-[(5S)-5-(3,5-dichlorophenyl)-5-(trifluoromethyl)-4H-isoxazol-3-yl]phenyl]sulfanyl-N-cyclopropyl-methanesulfonamide]
≥ 80%: pest or weed control at 200 ppm [1] | pest or weed control at 200 ppm [2] | pest or weed control at 200 ppm [3] | pest or weed control at 200 ppm [4] | pest or weed control at 200 ppm [5] | pest or weed control at 200 ppm [6]

CC(C)NS(=O)(=O)CSc1ccc(C2=NO[C@@](c3cc(Cl)cc(Cl)c3)(C(F)(F)F)C2)cc1Br [Compound B4, 1-[2-bromo-4-[(5S)-5-(3,5-dichlorophenyl)-5-(trifluoromethyl)-4H-isoxazol-3-yl]phenyl]sulfanyl-N-isopropyl-methanesulfonamide]
≥ 80%: pest or weed control at 200 ppm [1] | pest or weed control at 200 ppm [2] | pest or weed control at 200 ppm [3] | pest or weed control at 200 ppm [4] | mortality at 200 ppm [7] | pest or weed control at 200 ppm [5] | pest or weed control at 200 ppm [6]

C#CCNS(=O)(=O)CSc1ccc(C2=NO[C@@](c3cc(Cl)cc(Cl)c3)(C(F)(F)F)C2)cc1Br [Compound B5, 1-[2-bromo-4-[(5S)-5-(3,5-dichlorophenyl)-5-(trifluoromethyl)-4H-isoxazol-3-yl]phenyl]sulfanyl-N-propargyl-methanesulfonamide]
≥ 80%: pest or weed control at 200 ppm [1] | pest or weed control at 200 ppm [2] | pest or weed control at 200 ppm [3] | pest or weed control at 200 ppm [4] | pest or weed control at 200 ppm [5] | pest or weed control at 200 ppm [6]

O=S(=O)(CS(=O)(=O)c1ccc(C2=NOC(c3cc(Cl)cc(Cl)c3)(C(F)(F)F)C2)cc1Br)NC1CC1 (stereo not shown) [Compound B6, 1-[2-bromo-4-[5-(3,5-dichlorophenyl)-5-(trifluoromethyl)-4H-isoxazol-3-yl]phenyl]sulfonyl-N-cyclopropyl-methanesulfonamide]
≥ 80%: pest or weed control at 200 ppm [1] | pest or weed control at 200 ppm [2] | pest or weed control at 200 ppm [3] | pest or weed control at 200 ppm [4] | pest or weed control at 200 ppm [5] | pest or weed control at 200 ppm [6]

CCN(CC)S(=O)(=O)CSc1ccc(C2=CSC(c3cc(Cl)cc(Cl)c3)(C(F)(F)F)C2)cc1Br (stereo not shown) [Compound D1, 1-[2-bromo-4-[2-(3,5-dichlorophenyl)-2-(trifluoromethyl)-3H-thiophen-4-yl]phenyl]sulfanyl-N,N-diethyl-methanesulfonamide]
≥ 80%: pest or weed control at 200 ppm [3]

CCNS(=O)(=O)CSc1ccc(C2=CSC(c3cc(Cl)cc(Cl)c3)(C(F)(F)F)C2)cc1Br (stereo not shown) [Compound D2, 1-[2-bromo-4-[2-(3,5-dichlorophenyl)-2-(trifluoromethyl)-3H-thiophen-4-yl]phenyl]sulfanyl-N-ethyl-methanesulfonamide]
≥ 80%: pest or weed control at 200 ppm [4] | pest or weed control at 200 ppm [5] | pest or weed control at 200 ppm [6] | mortality at 200 ppm [8]
